Experimental data: PubChem BioAssay AID330 (DTP/NCI, 2004)
Where “and” joins values, the source holds several entries; their conditions need not be identical. Identical values can stand only once. Inconclusive results and toxic doses are left out. Rule for the calls: active = survival T/C of 150% or more; inactive = T/C below 125% in these data.

Test system: P388 leukemia ip, CD2F1 mice, survival T/C
Experiment: NCI In Vivo Anticancer Drug Screen. Data for tumor model P388 Leukemia (intraperitoneal) in CD2F1 (CDF1) mice
Details: endpoint: median survival time, higher = longer survival
Method in brief: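 Mice carrying the transplanted tumor received test compound or vehicle. Survival was recorded in each group, and the value is the treated-group measurement divided by that of the vehicle-treated control group.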

[1] = dose: 12.5 mg/kg/injection, schedule: Q01DX005 (ip), vehicle: saline with Tween-80
[2] = dose: 25.0 mg/kg/injection, schedule: Q01DX005 (ip), vehicle: saline with Tween-80
[3] = dose: 50.0 mg/kg/injection, schedule: Q01DX005 (ip), vehicle: saline with Tween-80
[4] = dose: 100.0 mg/kg/injection, schedule: Q04DX002 (ip), vehicle: Klucel (hydroxypropylcellulose) (HPC)
[5] = dose: 200.0 mg/kg/injection, schedule: Q04DX002 (ip), vehicle: Klucel (hydroxypropylcellulose) (HPC)
[6] = dose: 400.0 mg/kg/injection, schedule: Q04DX002 (ip), vehicle: Klucel (hydroxypropylcellulose) (HPC)
[7] = dose: 60.0 mg/kg/injection, schedule: Q01DX005 (ip), vehicle: saline with Tween-80
[8] = dose: 120.0 mg/kg/injection, schedule: Q01DX005 (ip), vehicle: saline with Tween-80
[9] = dose: 240.0 mg/kg/injection, schedule: Q01DX005 (ip), vehicle: saline with Tween-80

Measured: T/C

Cn1nnc(-c2nnnn2N)n1
inactive: dose: 50.0 mg/kg/injection, schedule: Q01DX009 (ip), vehicle: saline 95 % of control | dose: 100.0 mg/kg/injection, schedule: Q01DX009 (ip), vehicle: saline 94 % of control | dose: 200.0 mg/kg/injection, schedule: Q01DX009 (ip), vehicle: saline 94 % of control

O=C1C=CC(=O)N1c1ccc(-c2nc3ccccc3o2)cc1
inactive: dose: 6.25 mg/kg/injection, schedule: Q01DX005 (ip), vehicle: saline with Tween-80 109 % of control | [1] 109 % of control | [2] 109 % of control and 111 % of control | [3] 111 % of control

CSc1nc2c(=S)[nH]c(=S)[nH]c2s1
inactive: [4] 101 % of control | [5] 100 % of control | [6] 100 % of control

O=C1CSC(c2cccc(Cl)c2)N1N1C(=O)CSC1c1cccc(Cl)c1 (stereo not drawn)
inactive: dose: 60.0 mg/kg/injection, schedule: Q01DX005 (ip), vehicle: Klucel (hydroxypropylcellulose) (HPC) 102 % of control | dose: 120.0 mg/kg/injection, schedule: Q01DX005 (ip), vehicle: Klucel (hydroxypropylcellulose) (HPC) 97 % of control | dose: 240.0 mg/kg/injection, schedule: Q01DX005 (ip), vehicle: Klucel (hydroxypropylcellulose) (HPC) 94 % of control

C=C1C(=O)[C@]23C[C@H]1CC[C@H]2[C@@]12CO[C@@H](O)[C@@H]1C(C)(C)[C@@H](O)C[C@@H]2OC3=O
inactive: dose: 3.8 mg/kg/injection, schedule: Q01DX008 (ip), vehicle: saline with Tween-80 100 % of control | dose: 7.5 mg/kg/injection, schedule: Q01DX008 (ip), vehicle: saline with Tween-80 102 % of control | dose: 7.5 mg/kg/injection, schedule: Q01DX009 (ip), vehicle: saline with Tween-80 113 % of control | dose: 15.0 mg/kg/injection, schedule: Q01DX008 (ip), vehicle: saline with Tween-80 94 % of control | dose: 15.0 mg/kg/injection, schedule: Q01DX009 (ip), vehicle: saline with Tween-80 123 % of control | dose: 30.0 mg/kg/injection, schedule: Q01DX008 (ip), vehicle: saline with Tween-80 102 % of control | dose: 30.0 mg/kg/injection, schedule: Q01DX009 (ip), vehicle: saline with Tween-80 117 % of control | dose: 60.0 mg/kg/injection, schedule: Q01DX009 (ip), vehicle: saline with Tween-80 113 % of control

O/N=C(/Cc1nc2cc(Cl)c(Cl)cc2nc1C/C(=N/O)c1cccnc1)c1cccnc1
inactive: [7] 102 % of control | [8] 107 % of control | [9] 107 % of control

O=C1C=C2COC(O)CC2CC1 (stereo not drawn)
inactive: dose: 100.0 mg/kg/injection, schedule: Q04DX003 (ip), vehicle: Klucel (hydroxypropylcellulose) (HPC) 104 % of control | dose: 200.0 mg/kg/injection, schedule: Q04DX003 (ip), vehicle: Klucel (hydroxypropylcellulose) (HPC) 105 % of control | dose: 400.0 mg/kg/injection, schedule: Q04DX003 (ip), vehicle: Klucel (hydroxypropylcellulose) (HPC) 111 % of control

CC(=O)c1ccccc1OCC(O)CNc1ccc(Cl)cc1C(=O)c1ccccc1 (stereo not drawn)
inactive: [7] 99 % of control and 92 % of control | [8] 92 % of control | [9] 89 % of control and 96 % of control

Clc1cccc2nc(-c3ccccn3)n(CCc3ccncc3)c12
inactive: dose: 25.0 mg/kg/injection, schedule: Q01DX005 (ip), vehicle: Klucel (hydroxypropylcellulose) (HPC) 95 % of control | dose: 50.0 mg/kg/injection, schedule: Q01DX005 (ip), vehicle: Klucel (hydroxypropylcellulose) (HPC) 95 % of control | dose: 100.0 mg/kg/injection, schedule: Q01DX005 (ip), vehicle: Klucel (hydroxypropylcellulose) (HPC) 95 % of control | dose: 200.0 mg/kg/injection, schedule: Q01DX005 (ip), vehicle: Klucel (hydroxypropylcellulose) (HPC) 93 % of control

CC(=O)N1NC(=O)c2c([nH]c3ccccc23)C1c1ccccc1 (stereo not drawn)
inactive: [4] 101 % of control | [5] 106 % of control | [6] 101 % of control

CCN(CC)CCOCc1ccc2c(c1)OCO2
inactive: [2] 113 % of control | [3] 113 % of control | dose: 100.0 mg/kg/injection, schedule: Q01DX005 (ip), vehicle: saline with Tween-80 111 % of control

C#CC1(O)CC(c2ccccc2)N(C)C(c2ccccc2)C1 (stereo not drawn)
inactive: [1] 93 % of control | [2] 98 % of control | [3] 98 % of control and 87 % of control
